Measured values: patent publication US20020137929A1, “1 - (3-heterocyclylphenyl) isothiourea, -isourea, -guanidine and -amidine herbicidal agents” (Intellectual Property Department, BASF Aktiengesellschaft, priority 1998, published 2002)

Legend:
ABUTH (Velvetleaf) = assay: Postemergence herbicidal evaluation; format: in vivo, Abutilon theophrasti; conditions: postemergence
Procedure: (§1) In the tests, seedling plants are grown in jiffy flats for about two weeks. The test compounds are dispersed in 50/50 acetone/water mixtures containing 0.5% TWEEN®20, a polyoxyethylene sorbitan monolaurate surfactant of Atlas Chemical Industries, in sufficient quantities to provide the equivalent of about 0.0156 kg to 0.500 kg per hectare of active compound when applied to the plants through a spray nozzle operating at 40 psi for a predetermined time. After spraying, the plants are placed on greenhouse benches and are cared for in accordance with conventional greenhouse procedures. From four to five weeks after treatment, the seedling plants are examined and rated according to the rating system set forth below. Where more than one test is involved for a given compound, the data are averaged.
(§2) Plant species employed in these evaluations are reported by header abbreviation, common name and scientific name.
(§3) Results of herbicide evaluation are expressed on a rating scale (0-9). The scale is based upon a visual observation of plant stand, vigor, malformation, size, chlorosis and overall plant appearance as compared with a control.

GALAP (Galium) = assay: Postemergence herbicidal evaluation; format: in vivo, Galium aparine; conditions: postemergence
Procedure: as §1, §2, §3

ECHCG (Barnyardgrass) = assay: Postemergence herbicidal evaluation; format: in vivo, Echinochloa crus-galli; conditions: postemergence
Procedure: as §1, §2, §3

SETVI (Foxtail, Green) = assay: Postemergence herbicidal evaluation; format: in vivo, Setaria viridis; conditions: postemergence
How it was run: (§4)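 Each compound, dispersed in an acetone/water mix (50/50) carrying 0.5% TWEEN 20, is nozzle-sprayed at 40 psi on approximately two-week-old seedlings at about 0.0156–0.500 kg/ha. Plants are assessed 4–5 weeks afterward on a 0–9 scale relative to control; duplicate tests are averaged.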

ORYSAT (Rice, Tebonnet) = assay: Postemergence herbicidal evaluation; format: in vivo, Oryza sativa, (L.) Tebonnet; conditions: postemergence
How it was run: as §4

[1] = test system: IPOHE (Morningglory, Ivyleaf); assay: Preemergence herbicidal evaluation; format: in vivo, Ipomoea hederacea; conditions: rated 4-5 weeks after treatment
Text: as §3
(§5) The preemergence herbicidal activity of the test compounds of the present invention is exemplified by the following tests in which the seeds of a variety of monocotyledonous and dicotyledonous plants are separately mixed with potting soil and planted on top of approximately one inch of soil in separate pint cups. After planting, the cups are sprayed with the selected aqueous acetone solution containing test compound in sufficient quantity to provide the equivalent of about 0.0156 to 0.500 kg per hectare of test compound per cup. The treated cups are then placed on greenhouse benches, watered and cared for in accordance with conventional greenhouse procedures. From four to five weeks after treatment, the tests are terminated and each cup is examined and rated according to the rating system provided in Example 37.
(§6) The compounds evaluated are reported by compound number given in Example 37.

[2] = test system: TRZAWR (Wheat, Winter, cv Riband); assay: Preemergence herbicidal evaluation; format: in vivo, Triticum aestivum; conditions: rated 4-5 weeks after treatment
Text: as §3, §5, §6

ZEAMX (Corn, Field) = assay: Preemergence herbicidal evaluation; format: in vivo, Zea mays; conditions: rated 4-5 weeks after treatment
Text: as §3, §5, §6

[3] = test system: ECHORC (Watergrass (Calif.)); assay: Preemergence weed control under flooded paddy conditions; format: in vivo, Echinochloa oryzoides; conditions: rated 3-4 weeks after treatment
Procedure: as §3
(§7) Preemergence herbicidal activity under flooded paddy conditions is determined as follows: plant seeds or propagating organs are planted in the top 0.5 cm of silt loam soil in 32 oz. plastic containers with a diameter of 10.5 cm and no drainage holes. Water is added to these containers and maintained at 1.5 to 3 cm above the soil surface for the duration of the experiment. The test compounds are applied as aqueous/acetone mixtures 50/50 v/v pipetted directly into the flood water to give the equivalent of about 0.0313 to 0.500 kg/ha of active ingredient. The treated containers are placed on greenhouse benches and cared for in accordance with conventional greenhouse procedures. Three to four weeks after treatment, the test is terminated and each container is examined and herbicidal effect rated according to the rating system provided in Example 37. The compounds evaluated are reported by compound number given in Example 37.
(§8) Plant species employed in this example are reported by header abbreviation, common name and scientific name.

CYPIR (Rice Flatsedge) = assay: as above; format: in vivo, Cyperus iria; conditions: rated 3-4 weeks after treatment
Procedure: as §3, §7, §8

MOOVA (Monochoria) = assay: as above; format: in vivo, Monochoria vaginalis; conditions: rated 3-4 weeks after treatment
How it was run: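 Ratings on a 0-9 visual scale cover stand, vigor, malformation, size, chlorosis and overall appearance relative to a control, taken three to four weeks post-treatment. Application was into flood water over freshly sown silt loam at roughly 0.0313 to 0.500 kg/ha.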

[4] = rate 0.0156 kg/ha, rating scale 0-9
[5] = rate 0.0313 kg/ha, rating scale 0-9
[6] = rate 0.0625 kg/ha, rating scale 0-9
[7] = rate 0.1250 kg/ha, rating scale 0-9
[8] = rate 0.2500 kg/ha, rating scale 0-9

## COC(=O)COC(=O)CN1C(=O)CSC1=Nc1cc(-n2c(=O)cc(C(F)(F)F)n(C)c2=O)c(F)cc1Cl [Compound 108, 2-{{2-Chloro-5-[3,6-dihydro-3-methyl-2,6-dioxo-4-(trifluoromethyl)-1(2H)-pyrimidinyl]-4-fluorophenyl}imino}-4-oxo-3-thiazolidineacetic acid, ester with methyl glycolate]
ABUTH (Velvetleaf); rate 0.0158 kg/ha
  Herbicidal rating ABUTH: 9.0
ABUTH (Velvetleaf); rate 0.0315 kg/ha
  Herbicidal rating ABUTH: 9.0
ABUTH (Velvetleaf); rate 0.0630 kg/ha
  Herbicidal rating ABUTH: 9.0
GALAP (Galium); rate 0.0158 kg/ha
  Herbicidal rating GALAP: 1.0
GALAP (Galium); rate 0.0315 kg/ha
  Herbicidal rating GALAP: 1.0
GALAP (Galium); rate 0.0630 kg/ha
  Herbicidal rating GALAP: 3.0
ECHCG (Barnyardgrass); rate 0.0158 kg/ha
  Herbicidal rating ECHCG: 3.0
ECHCG (Barnyardgrass); rate 0.0315 kg/ha
  Herbicidal rating ECHCG: 4.0
ECHCG (Barnyardgrass); rate 0.0630 kg/ha
  Herbicidal rating ECHCG: 4.0
SETVI (Foxtail, Green); rate 0.0158 kg/ha
  Herbicidal rating SETVI: 4.0
SETVI (Foxtail, Green); rate 0.0315 kg/ha
  Herbicidal rating SETVI: 6.0
SETVI (Foxtail, Green); rate 0.0630 kg/ha
  Herbicidal rating SETVI: 7.0
ORYSAT (Rice, Tebonnet); rate 0.0158 kg/ha
  Herbicidal rating ORYSAT: 3.0
ORYSAT (Rice, Tebonnet); rate 0.0315 kg/ha
  Herbicidal rating ORYSAT: 3.0
ORYSAT (Rice, Tebonnet); rate 0.0630 kg/ha
  Herbicidal rating ORYSAT: 3.5
[1]; rate 0.0156 kg/ha
  Preemergence herbicidal rating IPOHE: 0.0
[1]; rate 0.0313 kg/ha
  Preemergence herbicidal rating IPOHE: 0.0
[1]; rate 0.0625 kg/ha
  Preemergence herbicidal rating IPOHE: 0.0
[1]; rate 0.1250 kg/ha
  Preemergence herbicidal rating IPOHE: 4.0
[1]; rate 0.2500 kg/ha
  Preemergence herbicidal rating IPOHE: 9.0
[2]; rate 0.0156 kg/ha
  Preemergence herbicidal rating TRZAWR: 0.0
[2]; rate 0.0313 kg/ha
  Preemergence herbicidal rating TRZAWR: 0.0
[2]; rate 0.0625 kg/ha
  Preemergence herbicidal rating TRZAWR: 0.0
[2]; rate 0.1250 kg/ha
  Preemergence herbicidal rating TRZAWR: 2.0
[2]; rate 0.2500 kg/ha
  Preemergence herbicidal rating TRZAWR: 5.0
ZEAMX (Corn, Field); rate 0.0156 kg/ha
  Preemergence herbicidal rating ZEAMX: 0.0
ZEAMX (Corn, Field); rate 0.0313 kg/ha
  Preemergence herbicidal rating ZEAMX: 0.0
ZEAMX (Corn, Field); rate 0.0625 kg/ha
  Preemergence herbicidal rating ZEAMX: 0.0
ZEAMX (Corn, Field); rate 0.1250 kg/ha
  Preemergence herbicidal rating ZEAMX: 1.0
ZEAMX (Corn, Field); rate 0.2500 kg/ha
  Preemergence herbicidal rating ZEAMX: 2.0
[3]; 0.0313 kg/ha
  ECHORC herbicidal effect rating: 0.0
[3]; 0.0625 kg/ha
  ECHORC herbicidal effect rating: 0.0
[3]; 0.1250 kg/ha
  ECHORC herbicidal effect rating: 0.0
[3]; 0.2500 kg/ha
  ECHORC herbicidal effect rating: 0.0
CYPIR (Rice Flatsedge); 0.0313 kg/ha
  CYPIR herbicidal effect rating: 4.0
CYPIR (Rice Flatsedge); 0.0625 kg/ha
  CYPIR herbicidal effect rating: 6.0
CYPIR (Rice Flatsedge); 0.1250 kg/ha
  CYPIR herbicidal effect rating: 7.0
CYPIR (Rice Flatsedge); 0.2500 kg/ha
  CYPIR herbicidal effect rating: 7.0
MOOVA (Monochoria); 0.0313 kg/ha
  MOOVA herbicidal effect rating: 9.0
MOOVA (Monochoria); 0.0625 kg/ha
  MOOVA herbicidal effect rating: 9.0
MOOVA (Monochoria); 0.1250 kg/ha
  MOOVA herbicidal effect rating: 9.0
MOOVA (Monochoria); 0.2500 kg/ha
  MOOVA herbicidal effect rating: 9.0

## Cn1c(C(F)(F)F)cc(=O)n(-c2cc(N=C3SCC(=O)N3Cc3ccc(F)cc3)c(Cl)cc2F)c1=O [Compound 151, 3-{4-Chloro-2-fluoro-5-{[3-(p-fluorobenzyl)-4-oxo-2-thiazolidinylidene]amino}phenyl}-1-methyl-6-(trifluoromethyl)-2,4(1H,3H)-pyrimidinedione]
ABUTH (Velvetleaf); rate 0.0156 kg/ha
  Herbicidal rating ABUTH: 9.0
ABUTH (Velvetleaf); rate 0.0313 kg/ha
  Herbicidal rating ABUTH: 9.0
ABUTH (Velvetleaf); rate 0.0625 kg/ha
  Herbicidal rating ABUTH: 9.0
GALAP (Galium); rate 0.0156 kg/ha
  Herbicidal rating GALAP: 4.0
GALAP (Galium); rate 0.0313 kg/ha
  Herbicidal rating GALAP: 4.0
GALAP (Galium); rate 0.0625 kg/ha
  Herbicidal rating GALAP: 6.0
ECHCG (Barnyardgrass); rate 0.0156 kg/ha
  Herbicidal rating ECHCG: 3.0
ECHCG (Barnyardgrass); rate 0.0313 kg/ha
  Herbicidal rating ECHCG: 3.0
ECHCG (Barnyardgrass); rate 0.0625 kg/ha
  Herbicidal rating ECHCG: 4.0
SETVI (Foxtail, Green); rate 0.0156 kg/ha
  Herbicidal rating SETVI: 5.0
SETVI (Foxtail, Green); rate 0.0313 kg/ha
  Herbicidal rating SETVI: 5.0
SETVI (Foxtail, Green); rate 0.0625 kg/ha
  Herbicidal rating SETVI: 9.0
ORYSAT (Rice, Tebonnet); rate 0.0156 kg/ha
  Herbicidal rating ORYSAT: 2.0
ORYSAT (Rice, Tebonnet); rate 0.0313 kg/ha
  Herbicidal rating ORYSAT: 2.5
ORYSAT (Rice, Tebonnet); rate 0.0625 kg/ha
  Herbicidal rating ORYSAT: 3.5
[1]; [4]
  Preemergence herbicidal rating IPOHE: 4.0
[1]; [5]
  Preemergence herbicidal rating IPOHE: 9.0
[1]; [6]
  Preemergence herbicidal rating IPOHE: 9.0
[1]; [7]
  Preemergence herbicidal rating IPOHE: 9.0
[1]; [8]
  Preemergence herbicidal rating IPOHE: 9.0
[2]; [4]
  Preemergence herbicidal rating TRZAWR: 2.0
[2]; [5]
  Preemergence herbicidal rating TRZAWR: 6.0
[2]; [6]
  Preemergence herbicidal rating TRZAWR: 5.0
[2]; [7]
  Preemergence herbicidal rating TRZAWR: 8.0
[2]; [8]
  Preemergence herbicidal rating TRZAWR: 9.0
ZEAMX (Corn, Field); [4]
  Preemergence herbicidal rating ZEAMX: 7.0
ZEAMX (Corn, Field); [5]
  Preemergence herbicidal rating ZEAMX: 7.0
ZEAMX (Corn, Field); [6]
  Preemergence herbicidal rating ZEAMX: 7.0
ZEAMX (Corn, Field); [7]
  Preemergence herbicidal rating ZEAMX: 9.0
ZEAMX (Corn, Field); [8]
  Preemergence herbicidal rating ZEAMX: 9.0
[3]; 0.0313 kg/ha
  herbicidal effect rating, ECHORC: 3.0
[3]; 0.0625 kg/ha
  herbicidal effect rating, ECHORC: 5.0
[3]; 0.1250 kg/ha
  herbicidal effect rating, ECHORC: 9.0
[3]; 0.2500 kg/ha
  herbicidal effect rating, ECHORC: 9.0
CYPIR (Rice Flatsedge); 0.0313 kg/ha
  herbicidal effect rating, CYPIR: 0.0
CYPIR (Rice Flatsedge); 0.0625 kg/ha
  herbicidal effect rating, CYPIR: 2.0
CYPIR (Rice Flatsedge); 0.1250 kg/ha
  herbicidal effect rating, CYPIR: 6.0
CYPIR (Rice Flatsedge); 0.2500 kg/ha
  herbicidal effect rating, CYPIR: 8.0
MOOVA (Monochoria); 0.0313 kg/ha
  herbicidal effect rating, MOOVA: 6.0
MOOVA (Monochoria); 0.0625 kg/ha
  herbicidal effect rating, MOOVA: 9.0
MOOVA (Monochoria); 0.1250 kg/ha
  herbicidal effect rating, MOOVA: 9.0
MOOVA (Monochoria); 0.2500 kg/ha
  herbicidal effect rating, MOOVA: 9.0
